According to PubChem BioAssay (NCI):
Where “and” joins values, the source holds several entries; their conditions need not be identical. Equal values may be shown once.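 All cell lines were grown in 96-well plates and treated with compound for 48 hours. At the GI50, growth is halved. TGI is the concentration that stops growth completely.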

Assays:
Experiment in all cases: DTP human tumour cell line panel, 48 h
A549 NSCLC = test system: A549 NSCLC
COLO 205 colon = test system: COLO 205 colon
HOP-92 NSCLC = test system: HOP-92 NSCLC
OVCAR-3 ovarian = test system: OVCAR-3 ovarian
OVCAR-8 ovarian = test system: OVCAR-8 ovarian
SF-268 CNS = test system: SF-268 CNS
SW-620 colon = test system: SW-620 colon
UACC-257 melanoma = test system: UACC-257 melanoma
UACC-62 melanoma = test system: UACC-62 melanoma
UO-31 renal = test system: UO-31 renal

Row | SMILES | GI50 (A549 NSCLC) | TGI (A549 NSCLC) | GI50 (COLO 205 colon) | TGI (COLO 205 colon) | GI50 (HOP-92 NSCLC) | TGI (HOP-92 NSCLC) | GI50 (OVCAR-3 ovarian) | TGI (OVCAR-3 ovarian) | GI50 (OVCAR-8 ovarian) | TGI (OVCAR-8 ovarian) | GI50 (SF-268 CNS) | TGI (SF-268 CNS) | GI50 (SW-620 colon) | TGI (SW-620 colon) | GI50 (UACC-257 melanoma) | TGI (UACC-257 melanoma) | GI50 (UACC-62 melanoma) | TGI (UACC-62 melanoma) | GI50 (UO-31 renal) | TGI (UO-31 renal)
1 | O=C(Nc1ccccc1OC(F)(F)F)Nc1n[nH]c2ccccc12 | 15.7 µM | 60.1 µM | 71.8 µM | > 100 µM | 12.9 µM | 83.2 µM | 90.8 µM | > 100 µM | 29.6 µM | > 100 µM | 16.2 µM | > 100 µM | 36.8 µM | > 100 µM | 47.2 µM | > 100 µM | 31.7 µM | > 100 µM | 17.4 µM | > 100 µM
2 | C=C(CN1CCN(c2ccc(Cl)cc2F)CC1)c1ccc(C(=O)Nc2ccccc2N)cc1 | 2.56 µM | > 30.5 µM | 16.7 µM | > 95.3 µM | 1.57 µM | > 27.4 µM | 2.29 µM | > 100 µM | 3.4 µM | > 100 µM | 2.61 µM | > 100 µM | 3.06 µM | > 100 µM | 1.59 µM | 48.6 µM | 2.42 µM | > 92.1 µM | 1.1 µM | > 25.1 µM
3 | O=S(=O)(NC1=NCCN1C(=S)SN1CCn2c1nsc2=S)c1ccc(OC(F)(F)F)cc1 | 21.1 µM | 54.3 µM | 10.7 µM | 28.2 µM | 25.1 µM | 44.1 µM | 7.63 µM | 22.9 µM | 16.3 µM | 39.3 µM | 11 µM | 98.1 µM | 9.62 µM | 24.3 µM | 15.5 µM | 30 µM | 11.6 µM | 24.4 µM | 20.5 µM | 41.5 µM
4 | COC1=CC(=O)c2nc(-c3ccncc3)[nH]c2C1=O | > 100 µM | > 100 µM | > 100 µM | > 100 µM | 31.4 µM | > 100 µM | > 100 µM | > 100 µM | > 100 µM | > 100 µM | > 100 µM | > 100 µM | > 100 µM | > 100 µM | > 100 µM | > 100 µM | > 100 µM | > 100 µM | 86.7 µM | > 100 µM
5 | CC1=C(C(=O)Nc2ccc(Cl)c(Cl)c2)C(c2cccc(Oc3ccccc3)c2)NC(=S)N1 (stereo unspecified) | 9.51 µM | 23.7 µM | 9.38 µM | 21.1 µM | 13.3 µM | 31.2 µM | 1.87 µM | 8.15 µM | 7.8 µM | 16.8 µM | 6.1 µM | 12.9 µM | 8.23 µM | 15 µM | 9.73 µM | 22 µM | 7.81 µM | 14.6 µM | 7.63 µM | 17.6 µM
6 | CC(C)CCC[C@@H](C)[C@H]1CC[C@H]2[C@@H]3CC=C4C[C@@H](C(C(=O)O)C(=O)O)CC[C@]4(C)[C@H]3CC[C@]12C | 0.145 µM | 0.547 µM | 0.111 µM | 0.247 µM | 0.307 µM | 0.904 µM | 0.121 µM | 0.298 µM | 0.158 µM | 0.807 µM | 0.157 µM | 1.65 µM | 0.156 µM | 1.25 µM | 0.133 µM | 0.639 µM | 0.0764 µM | 0.187 µM | 0.137 µM | 0.467 µM
7 | COC(=O)[C@@H]1[C@H](O)[C@H](C)[C@H](O)[C@@](C)(O)/C=C\C=C(C)C(=O)Nc2c(C)c(OC(C)=O)c3c(c2O)C(=O)C(C)=C2OCOC(=C23)C(C)=C[C@@](C)(O)[C@H](O)[C@@H](C)[C@H]1OC(C)=O | > 66.9 µM | > 100 µM |  | > 100 µM and 29 µM and 37.3 µM |  | > 100 µM | 56.5 µM | 87.6 µM and 66.9 µM and > 100 µM | 42.3 µM | > 100 µM and 66.9 µM | > 66.9 µM | > 100 µM |  | > 100 µM and 21 µM | 35.2 µM | > 100 µM and 66.9 µM and 93.1 µM | 25.1 µM | > 100 µM and 66.9 µM and 54.5 µM |  | > 100 µM and 66.9 µM
8 | C/C(CC(=O)CCC(=O)Nc1cccc(C(F)(F)F)c1)=N\NC(=O)NN |  | > 100 µM |  | > 100 µM |  | > 100 µM |  | > 100 µM |  | > 100 µM |  | > 100 µM |  | > 100 µM |  | > 100 µM |  | > 100 µM |  | > 100 µM
9 | C#Cc1ccc(-n2c(/C=C/c3ccc(C(F)(F)F)cc3)nc3ncccc3c2=O)cc1 | 1.83 µM | 4.56 µM | 2.23 µM | 4.48 µM | 1.32 µM | 3.44 µM | 1.67 µM | 3.17 µM | 1.87 µM | 4.67 µM | 2.27 µM | 5.95 µM | 1.92 µM | 3.76 µM | 1.56 µM | 2.95 µM | 1.62 µM | 3.61 µM | 1.43 µM | 3.67 µM
10 | COc1ccccc1C12OC(=O)C1(C)Oc1ccccc1C2=O (stereo unspecified) |  | > 100 µM |  | > 100 µM |  | > 100 µM |  | > 100 µM |  | > 100 µM |  | > 100 µM |  | > 100 µM |  | > 100 µM |  | > 100 µM |  | > 100 µM
11 | COc1cc(Cc2cnc(/N=C3\C(=O)N(CN4CCN(c5c(F)cc6c(=O)c(C(=O)O)cn(C7CC7)c6c5OC)CC4C)c4ccc(F)cc43)nc2N)cc(OC)c1OC (stereo unspecified) | 27 µM | > 100 µM | 15 µM | 58.8 µM | 7.64 µM | 21.8 µM | 5.87 µM | 22.1 µM | 32.1 µM | > 100 µM | 18.2 µM | 57.7 µM | 5.28 µM | 23.3 µM | 22.3 µM | 44.1 µM | 12.6 µM | 26 µM | 31.7 µM | > 100 µM
12 | O=C(/C=C/C12c3ccccc3C(c3ccccc31)C1C(=O)NC(=O)C12)c1ccncc1 (stereo unspecified) | 13.4 µM | 27.2 µM | 3.57 µM | 9.43 µM | 1.94 µM | 6.27 µM | 2.34 µM | 5.96 µM | 2.41 µM | 8.2 µM | 2.46 µM | 8.48 µM | 2.47 µM | 7.95 µM | 2.7 µM | 9.19 µM | 1.87 µM | 3.88 µM | 1.48 µM | 4.8 µM
13 | c1ccc2cc(-c3cc(-c4cc(-c5ccc6ccccc6c5)on4)no3)ccc2c1 |  | > 100 µM |  | > 100 µM |  | > 100 µM |  | > 100 µM |  | > 100 µM |  | > 100 µM |  | > 100 µM |  | > 100 µM |  | > 100 µM |  | > 100 µM
14 | O=C(Nc1ccc(Cl)c(Cl)c1)Nc1ccc(Cl)c(Cl)c1 | 2.98 µM and 2.29 µM | 15.6 µM and 10.6 µM | 1.77 µM and 2.07 µM | 3.3 µM and 3.69 µM | 2.19 µM and 1.23 µM | 5.81 µM and 4.47 µM | 3.03 µM and 1.66 µM | 10.9 µM and 5.9 µM | 3.12 µM and 2.54 µM | 14.1 µM and 9.83 µM | 3.92 µM and 3.88 µM | 15.1 µM and 14.5 µM | 3.36 µM and 3.12 µM | 14.4 µM and 11.7 µM | 2.39 µM and 2.05 µM | 6.96 µM and 5.85 µM | 2.88 µM and 2.38 µM | 13.4 µM and 10.4 µM | 2.25 µM and 2.74 µM | 7.78 µM and 8.91 µM
